Measurements as given in paper PMC3961306, “Comparison of the Cancer Gene Targeting and Biochemical Selectivities of All Targeted Kinase Inhibitors Approved for Clinical Use” (PLoS ONE, 2014).
Where two headings read alike, the source gives them in different places.

Tests used:
[1] = test system: forty-four human cancer cell lines; assay: Cell proliferation assay (ATPlite, 72 hours) in the 44 cell line Oncolines panel; format: cell-based; conditions: Homo sapiens
[2] = target: panel of more than 300 wild-type and mutant kinases (313 kinase panel) (Homo sapiens, UniProt P22694); assay: Kinase profiling in a biochemical assay panel (mobility shift assays and ELISA), %-inhibition at 1 μM; selectivity entropy; conditions: kinase PKACβ; 1 μM
[3] = target: panel of more than 300 wild-type and mutant kinases (313 kinase panel) (Homo sapiens, UniProt Q9NQU5); assay: as above; conditions: kinase PAK6; 1 μM
[4] = target: T1, panel of more than 300 wild-type and mutant kinases (313 kinase panel) (Homo sapiens, UniProt P30530); assay: as above; conditions: kinase AXL; 1 μM compound
T1 sequence (P30530 26-894): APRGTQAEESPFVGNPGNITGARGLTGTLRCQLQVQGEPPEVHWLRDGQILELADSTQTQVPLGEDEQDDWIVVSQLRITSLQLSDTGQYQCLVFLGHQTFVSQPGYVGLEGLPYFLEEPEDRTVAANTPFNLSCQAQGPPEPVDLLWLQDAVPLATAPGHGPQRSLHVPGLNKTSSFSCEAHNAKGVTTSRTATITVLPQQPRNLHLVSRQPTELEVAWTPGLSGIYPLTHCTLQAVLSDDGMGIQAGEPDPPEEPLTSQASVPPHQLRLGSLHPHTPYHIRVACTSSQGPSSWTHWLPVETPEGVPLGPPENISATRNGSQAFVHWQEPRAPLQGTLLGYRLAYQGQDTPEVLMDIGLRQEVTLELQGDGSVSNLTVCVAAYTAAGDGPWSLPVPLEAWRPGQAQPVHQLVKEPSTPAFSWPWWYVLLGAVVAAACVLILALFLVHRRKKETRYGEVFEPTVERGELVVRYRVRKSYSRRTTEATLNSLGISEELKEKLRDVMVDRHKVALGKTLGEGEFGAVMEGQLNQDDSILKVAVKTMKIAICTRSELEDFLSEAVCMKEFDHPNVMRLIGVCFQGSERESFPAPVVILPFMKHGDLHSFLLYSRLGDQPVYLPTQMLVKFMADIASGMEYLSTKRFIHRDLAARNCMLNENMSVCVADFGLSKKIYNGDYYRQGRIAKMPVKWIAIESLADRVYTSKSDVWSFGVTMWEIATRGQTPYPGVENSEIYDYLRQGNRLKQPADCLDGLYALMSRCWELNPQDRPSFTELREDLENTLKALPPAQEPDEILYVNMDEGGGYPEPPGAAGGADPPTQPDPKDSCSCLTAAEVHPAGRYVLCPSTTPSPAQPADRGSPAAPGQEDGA

[5] = 4-4 cell, read-out: cell panel IC50, J82
[6] = 4-4 cell, read-out: cell panel IC50, PA-1
[7] = 4-4 cell, read-out: cell panel IC50, SJCRH30
[8] = 4-4 cell, read-out: cell panel IC50, SR
[9] = 769-P, read-out: cell panel IC50, 769-P
[10] = 786-0, read-out: cell panel IC50, 786-0
[11] = A 172, read-out: cell panel IC50, A-172
[12] = A204, read-out: cell panel IC50, A-204
[13] = A498, read-out: cell panel IC50, A-498
[14] = A549, read-out: cell panel IC50, A-549
[15] = A-375, read-out: cell panel IC50, A375
[16] = A-427, read-out: cell panel IC50, A-427
[17] = ACHN, read-out: cell panel IC50, ACHN
[18] = AN3-CA, read-out: cell panel IC50, AN3 CA
[19] = AU565, read-out: cell panel IC50, AU-565
[20] = BT-20, read-out: cell panel IC50, BT-20
[21] = BT-549, read-out: cell panel IC50, BT-549
[22] = BXPC-3, read-out: cell panel IC50, BxPC-3
[23] = C-33-A, read-out: cell panel IC50, C-33 A
[24] = CAL-27, read-out: cell panel IC50, CAL 27
[25] = CCRF-CEM, read-out: cell panel IC50, CCRF-CEM
[26] = DLD-1, read-out: cell panel IC50, DLD-1
[27] = FaDu, read-out: cell panel IC50, FaDu
[28] = HCT-15, read-out: cell panel IC50, HCT-15
[29] = HCT-116, read-out: cell panel IC50, HCT-116
[30] = Hs-578T, read-out: cell panel IC50, Hs 578T
[31] = Jurkat E6.1, read-out: cell panel IC50, Jurkat E6.1
[32] = K562, read-out: cell panel IC50, K-562
[33] = LS174T, read-out: cell panel IC50, LS 174T
[34] = LoVo, read-out: cell panel IC50, LoVo
[35] = MG-63, read-out: cell panel IC50, MG-63
[36] = MOLT-4, read-out: cell panel IC50, MOLT-4
[37] = MeWo, read-out: cell panel IC50, MeWo
[38] = NCI-H82, read-out: cell panel IC50, NCI-H82
[39] = NCI-H460, read-out: cell panel IC50, NCI-H460
[40] = OVCAR-3, read-out: cell panel IC50, OVCAR-3
[41] = RPMI-7951, read-out: cell panel IC50, RPMI-7951
[42] = SHP77, read-out: cell panel IC50, SHP-77
[43] = SK-N-AS, read-out: cell panel IC50, SK-N-AS
[44] = SW48, read-out: cell panel IC50, SW48
[45] = SW480, read-out: cell panel IC50, SW480
[46] = SW-620, read-out: cell panel IC50, SW620
[47] = U-87 MG, 72 h, read-out: IC50 in cell proliferation assay (table S5 cellpanel data)

Work on COc1cc(Nc2c(C#N)cnc3cc(OCCCN4CCN(C)CC4)c(OC)cc23)c(Cl)cc1Cl [bosutinib] yielded an IC50 [1, 5] of 4.47 µM, an IC50 [1, 6] of 1.26 µM and an IC50 [1, 7] of 4.39 µM. The IC50 [1, 8] was 0.983 µM, the IC50 [1, 9] was 1.24 µM and the IC50 [1, 10] was 2.2 µM. It also gave an IC50 [1, 11] of 3.69 µM, an IC50 [1, 12] of 5.69 µM and an IC50 [1, 13] of 1.51 µM. The IC50 [1, 14] was 2.38 µM, the IC50 [1, 15] was 2 µM and the IC50 [1, 16] was 2.32 µM. The IC50 [1, 17] was 0.808 µM, the IC50 [1, 18] was 8.02 µM and the IC50 [1, 19] was 4.03 µM. For the same molecule, the IC50 [1, 20] was 9 µM, the IC50 [1, 21] was 4.94 µM and the IC50 [1, 22] was 2.74 µM. For the same molecule, the IC50 [1, 23] was 0.108 µM, the IC50 [1, 24] was 1.69 µM and the IC50 [1, 25] was 3.55 µM. It also gave an IC50 [1, 26] of 2.25 µM, an IC50 [1, 27] of 1.93 µM and an IC50 [1, 28] of 2.05 µM. The IC50 [1, 29] was 2.9 µM, the IC50 [1, 30] was 3.63 µM and the IC50 [1, 31] was 0.466 µM. The IC50 [1, 32] was 0.014 µM, the IC50 [1, 33] was 1.18 µM and the IC50 [1, 34] was 0.811 µM. The IC50 [1, 35] was 4.21 µM, the IC50 [1, 36] was 1.29 µM and the IC50 [1, 37] was 5.6 µM. It also gave an IC50 [1, 38] of 3.5 µM, an IC50 [1, 39] of 3.72 µM and an IC50 [1, 40] of 3.03 µM. It also gave an IC50 [1, 41] of 3.23 µM, an IC50 [1, 42] of 11.5 µM and an IC50 [1, 43] of 0.923 µM. For the same molecule, the IC50 [1, 44] was 11.7 µM, the IC50 [1, 45] was 10.5 µM and the IC50 [1, 46] was 10.6 µM. The IC50 ([1]; U2OS, read-out: cell panel IC50, U-2 OS) was 2.62 µM, the IC50 [1, 47] was 6.95 µM and the “%-inhibition of PKACβ” value [2] was 52%. The “%-inhibition of PAK6” value [3] was -0.35%.
CCN(CC)CCNC(=O)c1c(C)[nH]c(/C=C2\C(=O)Nc3ccc(F)cc32)c1C [sunitinib] was tested, and the IC50 [1, 5] was 3.5 µM, the IC50 [1, 6] was 1.31 µM and the IC50 [1, 7] was 3.14 µM. For the same molecule, the IC50 [1, 8] was 0.527 µM, the IC50 [1, 9] was 2.66 µM and the IC50 [1, 10] was 2.62 µM. For the same molecule, the IC50 [1, 11] was 3.28 µM, the IC50 [1, 12] was 4.08 µM and the IC50 [1, 13] was 1.97 µM. It also gave an IC50 [1, 14] of 2.26 µM, an IC50 [1, 15] of 1.55 µM and an IC50 [1, 16] of 1.06 µM. It also gave an IC50 [1, 17] of 1.32 µM, an IC50 [1, 18] of 1.51 µM and an IC50 [1, 19] of 3.96 µM. It also gave an IC50 [1, 20] of 13.2 µM, an IC50 [1, 21] of 4.84 µM and an IC50 [1, 22] of 2.29 µM. The IC50 [1, 23] was 1.98 µM, the IC50 [1, 24] was 3.08 µM and the IC50 [1, 25] was 3.21 µM. For the same molecule, the IC50 [1, 26] was 3.13 µM, the IC50 [1, 27] was 2 µM and the IC50 [1, 28] was 2.11 µM. It also gave an IC50 [1, 29] of 2.68 µM, an IC50 [1, 30] of 3.48 µM and an IC50 [1, 31] of 1.06 µM. It also gave an IC50 [1, 32] of 2.09 µM, an IC50 [1, 33] of 3.52 µM and an IC50 [1, 34] of 0.962 µM. It also gave an IC50 [1, 35] of 3.37 µM, an IC50 [1, 36] of 0.828 µM and an IC50 [1, 37] of 3.42 µM. For the same molecule, the IC50 [1, 38] was 2.28 µM, the IC50 [1, 39] was 3.43 µM and the IC50 [1, 40] was 8.63 µM. It also gave an IC50 [1, 41] of 3.67 µM, an IC50 [1, 42] of 5.7 µM and an IC50 [1, 43] of 1.86 µM. It also gave an IC50 [1, 44] of 3.7 µM, an IC50 [1, 45] of 5.65 µM and an IC50 [1, 46] of 2.54 µM. For the same molecule, the IC50 [1, 47] was 5.75 µM and the “%-inhibition, AXL” value [4] was 98%.
